From PubChem BioAssay (NCI)
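48-hour exposure; five concentrations; linearly interpolated endpoints. TGI is the concentration that stops growth completely.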

Columns and labels:
Test in all cases: DTP human tumour cell line panel, 48 h
786-0 renal = test system: 786-0 renal
SK-MEL-2 melanoma = test system: SK-MEL-2 melanoma
SNB-75 CNS = test system: SNB-75 CNS
COLO 205 colon = test system: COLO 205 colon
HT29 colon = test system: HT29 colon
CAKI-1 renal = test system: CAKI-1 renal
HL-60(TB) leukemia = test system: HL-60(TB) leukemia
MDA-MB-231 breast = test system: MDA-MB-231 breast
NCI-H23 lung = test system: NCI-H23 lung
SR leukemia = test system: SR leukemia
LOX IMVI melanoma = test system: LOX IMVI melanoma
BT-549 breast = test system: BT-549 breast
RPMI-8226 leukemia = test system: RPMI-8226 leukemia
SN12C renal = test system: SN12C renal
A549 NSCLC = test system: A549 NSCLC
SK-OV-3 ovarian = test system: SK-OV-3 ovarian
UACC-62 melanoma = test system: UACC-62 melanoma
M14 melanoma = test system: M14 melanoma
HCT-15 colon = test system: HCT-15 colon
DMS 273 small cell lung = test system: DMS 273 small cell lung

SMILES	TGI (786-0 renal)	TGI (SK-MEL-2 melanoma)	TGI (SNB-75 CNS)	TGI (COLO 205 colon)	TGI (HT29 colon)	TGI (CAKI-1 renal)	TGI (HL-60(TB) leukemia)	TGI (MDA-MB-231 breast)	TGI (NCI-H23 lung)	TGI (SR leukemia)	TGI (LOX IMVI melanoma)	TGI (BT-549 breast)	TGI (RPMI-8226 leukemia)	TGI (SN12C renal)	TGI (A549 NSCLC)	TGI (SK-OV-3 ovarian)	TGI (UACC-62 melanoma)	TGI (M14 melanoma)	TGI (HCT-15 colon)	TGI (DMS 273 small cell lung)
COc1ccc2c(c1)OCC1Cc3ccccc3OC21 (stereo not given)	> 100 µM	> 100 µM	> 100 µM	> 100 µM	> 100 µM	> 100 µM	> 100 µM	> 100 µM	> 100 µM	> 100 µM	> 100 µM	> 100 µM	> 100 µM	> 100 µM	> 100 µM	> 100 µM	> 100 µM	> 100 µM	> 100 µM	
O=C1NCCN1/N=C/c1c(Cl)n(-c2ccccc2)c2ccccc12	77 µM	66.4 µM	55 µM	40.5 µM	35.3 µM	51.7 µM	> 100 µM	44.1 µM	44.8 µM	85.7 µM	38.9 µM	35.9 µM	52.8 µM	40.2 µM	> 100 µM	> 100 µM	41.5 µM	36.8 µM	39.9 µM	
O=c1c2sc(=S)n(-c3ccc(F)cc3)c2ncn1/N=C/c1ccc(F)cc1F	34.1 µM	85.6 µM	32.8 µM	> 100 µM	> 100 µM	32.9 µM	> 100 µM	53.4 µM	> 100 µM	> 100 µM	> 100 µM	37.5 µM	> 100 µM	> 100 µM	> 100 µM	53.7 µM	> 100 µM	67.4 µM	> 100 µM	
CC1OC(OC2C(OC(=O)[C@]34CCC(C)(C)C[C@H]3C3=CC[C@@H]5[C@@]6(C)CC[C@H](OC7OC(C(=O)O)C(O)C(O)C7O)C(C)(C)[C@@H]6CC[C@@]5(C)[C@]3(C)C[C@H]4O)OCC(O)C2O)C(O)C(OC2OCC(O)(CO)C2O)C1OC1OCC(O)C(O)C1O (stereo not given in full)	24.7 µM	20 µM	31.8 µM	3.36 µM	12.1 µM	20 µM	11.4 µM	12.7 µM	7.18 µM	18.9 µM	26.6 µM	17.3 µM	26 µM	11 µM	14.8 µM	29.3 µM	31 µM	23.3 µM	30 µM	
CN(C)c1ccc(C(=N/N=C2\C(=O)Nc3ccccc32)c2ccc(N(C)C)cc2)cc1	13.2 µM	2.72 µM	1.21 µM	3.34 µM	4.45 µM	19.7 µM	7.4 µM	13.1 µM	31.1 µM	26.8 µM	28.7 µM	38.6 µM	3.46 µM	46.8 µM	43.2 µM	11.9 µM	33.5 µM	14.4 µM	18.7 µM	
CN1CSC(=S)N(c2c3ccccc3nc3ccc(Br)cc23)C1	16.6 µM	29.3 µM	23.7 µM	20 µM	23.1 µM	24 µM	27.2 µM	22.9 µM	23.5 µM	12.6 µM	> 53.4 µM	32.2 µM	31.4 µM	18.8 µM	21.6 µM	31.1 µM	27.4 µM	26.9 µM	20.4 µM	
CCCSCC(P(=O)(O)O)P(=O)(O)O		> 100 µM	> 100 µM	> 100 µM	> 100 µM	> 100 µM	> 100 µM		> 100 µM		> 100 µM		> 100 µM	> 100 µM	> 100 µM	> 100 µM	> 100 µM		> 100 µM	> 100 µM
CCCCCCOc1ccc(C(=O)NOC)cc1	> 100 µM	> 100 µM	> 100 µM	> 100 µM	> 100 µM	> 100 µM	86.8 µM	> 100 µM	> 100 µM	> 100 µM	> 100 µM	> 100 µM	> 100 µM	> 100 µM	> 100 µM	> 100 µM	> 100 µM	> 100 µM	> 100 µM	
CC1=NS(=O)(=O)c2ccccc2N1	> 100 µM	> 100 µM	> 100 µM	> 100 µM	> 100 µM	> 100 µM	> 100 µM		> 100 µM	> 100 µM	> 100 µM			> 100 µM	> 100 µM	> 100 µM	> 100 µM	> 100 µM	> 100 µM	> 100 µM
O=C(O)/C=C(/C(=O)O)C12CCN3CC4=CCOC5CC(=O)NC1C5C4CC32 (stereo not given)	> 100 µM	> 100 µM	> 100 µM	> 100 µM	> 100 µM	> 100 µM	> 100 µM	> 100 µM	> 100 µM	> 100 µM	> 100 µM	> 100 µM	> 100 µM	> 100 µM	> 100 µM	> 100 µM	> 100 µM	> 100 µM	> 100 µM	
COc1ccc2c(c1)/C(=C\c1c(Cl)nc3sc(C)cn13)C(=O)N2	15.1 µM	8.41 µM	17.1 µM	9.45 µM	12.7 µM	17.1 µM	6.11 µM	17.7 µM	18.9 µM	15.6 µM	18.1 µM	20.5 µM	13.8 µM	21.9 µM	17 µM	14.6 µM	16.4 µM	8.89 µM	22.4 µM	
CS(=O)c1ncc2c(n1)-c1ccccc1OC2 (stereo not given)	> 100 µM	> 100 µM	> 100 µM	> 100 µM	> 100 µM	> 100 µM	> 100 µM	> 100 µM	> 100 µM	> 100 µM	> 100 µM	> 100 µM	> 100 µM	> 100 µM	> 100 µM	> 100 µM	> 100 µM	> 100 µM	> 100 µM	
O=C(/C=C/c1ccc2c(c1)OCO2)CC(=O)C(=O)c1c[nH]c2ccccc12	> 100 µM	> 100 µM	96.6 µM	> 100 µM	> 100 µM	> 100 µM	> 100 µM	> 100 µM	> 100 µM	> 100 µM	> 100 µM	> 100 µM	> 100 µM	> 100 µM	> 100 µM	> 100 µM	> 100 µM	> 100 µM	> 100 µM	
C=CCSc1nnc2cc(CN3CCCC3)c(-c3ccc(Cl)cc3)nn12	33.7 µM	34.5 µM	39.2 µM	34.5 µM	32.5 µM	77.5 µM	43.5 µM	35.6 µM	59.4 µM	> 100 µM	48.1 µM	42.4 µM	> 100 µM	32.1 µM	> 100 µM	55.5 µM	27.7 µM	34.7 µM	45.1 µM	
